# Literature values as cited in patent US6691638B2, “Methods for gamete production in birds” (North Carolina State University, priority 2000, dated 2004).
# Tests used:
# chick embryos = settings: injection into the yolk sac; cited from earlier work
# PGCs [1] = settings: administration in rats; cited from earlier work
# gonadal germ cells = settings: cited from earlier work
# PGCs [2] = settings: cited from earlier work
# [3] = forms a suspension; cited from earlier work
# quail eggs = settings: albumen suspension of BU; cited from earlier work
# germ cells = settings: 100 μg BU in sesame oil; cited from earlier work
# [4] = in vivo; cited from earlier work
# [5] = 50 μg BU suspended in sesame oil, 6 day-old chick embryos
# [6] = after injection of germinal crescent cells into BU-treated embryos
structure (smiles),measurement,setting,value
"CS(=O)(=O)OCCCCOS(C)(=O)=O [BU, 1,4-butanediol dimethane sulfonate]",Teratogenic effect,chick embryos,multiple malformations
same,Effect on development of PGCs,PGCs [1],markedly impair
same,Increase of the rate of germline chimerism,"gonadal germ cells; compared to non-BU treated embryos, estimated",3.5 fold
same,Effect on gonadal germ cells in chick embryos,"gonadal germ cells; injection of 25, 50 and 250 μg BU",significantly reduced
same,Reduction of PGCs in the left gonad,PGCs [2]; [5],75%
same,Reduction of PGCs in the right gonad,PGCs [2]; [5],78%
same,"PGC numbers, left gonad, % of controls",PGCs [2]; [6],72 % of controls
same,"PGC numbers, right gonad, % of controls",PGCs [2]; [6],115 % of controls
same,Solubility in aqueous solutions,[3],relatively insoluble
same,Effect on hatchability,quail eggs,significant declines in hatchability
same,Sterility index,germ cells,≥ 95%
same,Half-life,[4],approximately 10 hours
